This note sets out measurements from US20110071197A1, “BIS-ARYL COMPOUNDS FOR USE AS MEDICAMENTS” (priority 2008, published 2011).

The term inhibition denotes the share of the control response that was lost under treatment.

Structures are written as SMILES.

The target of this experiment is T1, Recombinant human LTC4 synthase (Homo sapiens, UniProt Q16873).
T1 construct: made in house; host or cells: Pichia pastoris
T1 sequence (Q16873 1-150): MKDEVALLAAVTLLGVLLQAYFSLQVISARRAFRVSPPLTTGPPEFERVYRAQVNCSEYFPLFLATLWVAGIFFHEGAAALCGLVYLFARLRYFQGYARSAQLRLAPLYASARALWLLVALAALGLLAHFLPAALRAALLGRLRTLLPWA
Briefly: LTC4 synthase in vitro assay (HTRF detection of LTC4). The format is biochemical. Particulars: HTRF method; for inhibition at 10 µM / % inh.: total concentration of title compound in the assay 10 μM; for inhibition at 3 µM: compound concentration 3 μM. How it is done: Alternatively HTRF detection of LTC4 can be used:
In the assay, LTC4 synthase catalyses the reaction where the substrate LTA4 is converted to LTC4. Recombinant human LTC4 synthase is expressed in Piccia pastoralis and the purified enzyme is dissolved in 25 mM Tris-buffer pH 7.8 supplemented with 0.1 mM glutathione (GSH) and stored at −80° C. The assay is performed in phosphate buffered saline (PBS) pH 7.4 and 5 mM GSH in 384-well plates.
The following is added chronologically to each well: • 1. 48 μl LTC4 synthase in PBS with 5 mM GSH. The total protein concentration in this solution is 0.5 μg/ml. • 2. […] Incubation of the plate at room temperature for 10 minutes. • 4. 1 μl LTA4 (final conc. 2.5 μM). • 5. Incubation of the plate at room temperature for 5 minutes. • 6. 10 μl of the incubation mixture is analysed using homogeneous time resolved fluorescent (HTRF) detection.

With `CCCCOc1ccc(S(=O)(=O)Nc2ccc(Oc3cccc(C(=O)NS(=O)(=O)c4cccc(Cl)c4F)c3)cc2C(=O)O)cc1` [20:1, 2-(4-Butoxy-benzenesulfonylamino)-5-[3-(3-chloro-2-fluoro-benzene-sulfonylaminocarbonyl)-phenoxy]-benzoic acid], the inhibition at 10 µM was 99%. On the same count and under the same terms, the result for `CCCCc1ccc(C(=O)Nc2ccc([S+]([O-])c3ccc(NC(=O)c4ccc(CCCC)cc4)c(C(=O)O)c3)cc2C(=O)O)cc1` [15:1, 5-(4-(4-butylbenzamido)-3-carboxyphenylsulfinyl)-2-(4-butylbenzamido)benzoic acid] reads 99%. Regarding `O=C(Nc1ccc(Oc2cccc(Oc3ccc(F)c(F)c3)c2)cc1C(=O)O)c1ccc(OC2CCCC2)cc1` [Example 28:2, 2-(4-Cyclopentyloxybenzoylamino)-5-[3-(3,4-difluorophenoxy)phenoxy]benzoic acid], the inhibition at 10 µM turned out to be 94%. For `CCCCc1ccc(S(=O)(=O)Nc2ccc(Oc3ccc(NC(=O)c4ccc(C(F)(F)F)cc4)c(C(=O)O)c3)cc2)cc1` [Example 11:1, 5-[4-(4-butylbenzene-sulfonylamino)phenoxy]-2-(4-trifluoromethylbenzoylamino)-benzoic acid], the inhibition at 10 µM worked out at 99%. As to `CCCCc1ccc(C(=O)Nc2ccc(Oc3ccc(NC(=O)c4ccc(CCCC)cc4)c(C(=O)O)c3)cc2C(=O)O)cc1` [4:1, 5-[3-carboxy-4-(4-butyl-benzamido)phenyloxy]-2-(4-butylbenzamido)benzoic acid], the inhibition at 10 µM was found to be 99%.

On to `CCCCc1ccc(S(=O)(=O)N(C)c2ccc(Oc3ccc(NC(=O)c4ccc(C)cc4)c(C(=O)O)c3)cc2)cc1` [11:5, 5-{4-[(4-butyl-benzenesulfonyl)-methylamino]phenoxy}-2-(4-methylbenzoylamino)benzoic acid], for which the inhibition at 10 µM was 99%. Still for that read-out and setting: under `O=C(Nc1cccc(Oc2ccc(NC(=O)c3ccc(C(F)(F)F)cc3F)c(C(=O)O)c2)c1)c1ccc(C(F)(F)F)cc1` [10:6, 2-(2-fluoro-4-trifluoromethylbenzoyl-amino)-5-[3-(4-trifluoromethylbenzoyl-amino)phenoxy]benzoic acid] stands 98%; under `O=C(Nc1ccc(Oc2ccc([N+](=O)[O-])c(C(=O)O)c2)cc1C(=O)O)c1ccccc1` [3:1, 2-benzamido-5-(3-carboxy-4-nitrophenoxy)benzoic acid], 65%. Regarding `O=C(O)c1cc(Sc2ccc(Nc3ccc(F)c(F)c3)cc2)ccc1Nc1ccc(F)c(F)c1` [Example 14:2, 2-(3,4-difluorophenylamino)-5-[4-(3,4-difluoro-phenylamino)-phenylsulfanyl]-benzoic acid], the inhibition at 10 µM was determined as 99%.

In the case of `O=C(O)Cc1cc(Oc2ccc(NC(=O)c3ccccc3)cc2)ccc1NC(=O)c1cccc(Cl)c1Cl` [17:2, [5-(4-benzoylamino-phenoxy)-2-(2,3-dichloro-benzoylamino)-phenyl]-acetic acid], the inhibition at 10 µM was determined as 99%.

As to `O=C(O)c1cc(Oc2ccc(Nc3ccc([N+](=O)[O-])cc3)c(C(=O)O)c2)ccc1Nc1ccc(F)cc1` [1:6, 5-[3-carboxy-4-(4-nitrophenyl-amino)phenyloxy]-2-(4-fluoro-phenylamino)benzene-carboxylic acid], the inhibition at 10 µM is 100%. As to `CCCCOc1ccc(S(=O)(=O)Nc2ccc(Oc3cccc(C(=O)NS(=O)(=O)c4ccc(F)c(F)c4)c3)cc2C(=O)O)cc1` [20:5, 2-(4-Butoxy-benzenesulfonylamino)-5-[3-(3,4-difluoro-benzenesulfonyl-aminocarbonyl)-phenoxy]-benzoic acid], the inhibition at 10 µM stood at 97%. For the compound `CC(C)Oc1ccc(C(=O)Nc2ccc(Oc3ccc(NC(=O)c4cc(Cl)ccc4O)c(CC(=O)O)c3)cc2C(=O)O)cc1` [6:3, 5-[3-carboxymethyl-4-(5-chloro-2-hydroxybenzoylamino)phenoxy]-2-(4-isopropoxybenzoyl-amino)benzoic acid], the inhibition at 10 µM stood at 100%.

On to `CC(C)Oc1ccc(C(=O)Nc2ccc(Oc3ccc(NC(=O)c4ccccc4)c(C(=O)O)c3)cc2)cc1` [8:13, 2-benzoylamino-5-[4-(4-iso-propoxybenzoylamino)-phenoxy]benzoic acid], for which the inhibition at 10 µM came out at 98%. For the compound `CCCCOc1ccc(S(=O)(=O)Nc2ccc(Oc3cccc(CC(=O)NS(=O)(=O)c4cccc(Cl)c4F)c3)cc2C(=O)O)cc1` [26:5, 2-(4-Butoxybenzenesulfonylamino)-5-{3-[2-(3-chloro-2-fluorobenzene-sulfonylamino)-2-oxoethyl]phenoxy}-benzoic acid], the inhibition at 10 µM stood at 99%. Regarding `O=C(Nc1ccc(S(=O)(=O)c2ccc(NC(=O)c3cccc(Cl)c3)c(C(=O)O)c2)cc1C(=O)O)c1cccc(Cl)c1` [16:1, 2-(3-chlorobenzamido)-5-(4-(3-chlorobenzamido)-3-carboxyphenylsulfonyl)-benzoic acid], the inhibition at 10 µM worked out at 98%. Turning to `CN(C)c1ccc(C(=O)Nc2ccc(Oc3ccc(NC(=O)c4ccc(C(F)(F)F)cc4)c(C(=O)O)c3)cc2)cc1.Cl` [8:6, 5-[4-(4-dimethylaminobenzoyl-amino)phenoxy]-2-(4-trifluoro-methylbenzoylamino)benzoic acid hydrochloride], the “% inh.” value is given as 97%. As for `COc1ccc(C(=O)Nc2ccc(Oc3ccc(N(C)C(=O)c4ccc(C(C)(C)C)cc4)cc3)cc2C(=O)O)cc1` [9:2, 5-(4-((N-methyl)-4-tert-butylbenz-amido)phenoxy)-2-(4-methoxybenz-amido)benzoic acid], the “% inh.” value was 96%. With `CCCCc1ccc(C(=O)Nc2ccc(Oc3ccc(NS(=O)(=O)c4ccccc4)c(C(=O)O)c3)cc2C(=O)O)cc1` [Example 7:2], the “% inh.” value is 100%.

`COc1ccc(S(=O)(=O)N(C)c2ccc(Oc3ccc(NC(=O)c4ccc(Cl)cc4OC)c(C(=O)O)c3)cc2)cc1` [11:17, 2-(4-Chloro-2-methoxy-benzoylamino)-5-{4-[(4-methoxy-benzenesulfonyl)-methyl-amino]-phenoxy}-benzoic acid]: the inhibition at 10 µM came out at 97%. As to `O=C(O)Cc1cc(Oc2ccc(NC(=O)c3ccc(C(F)(F)F)cc3F)c(C(=O)O)c2)ccc1NC(=O)c1cc(Cl)ccc1O` [6:2, 5-[3-carboxymethyl-4-(5-chloro-2-hydroxybenzoylamino)-phenoxy]-2-(2-fluoro-4-trifluoromethyl-benzoylamino)benzoic acid], the inhibition at 10 µM was 98%. Same read-out and setting: the result for `Cc1c(Cl)cccc1S(=O)(=O)Nc1ccc(Oc2cc(Nc3ccc(F)c(F)c3)cc(C(=O)O)c2)cc1` [18:4, 3-[4-(3-Chloro-2-methyl-benzene-sulfonylamino)-phenoxy]-5-(3,4-difluoro-phenylamino)-benzoic acid] reads 98%. Take `COc1ccc(S(=O)(=O)N(C)c2ccc(Oc3ccc(NC(=O)c4ccc(Cl)cc4Cl)c(C(=O)O)c3)cc2)cc1` [11:4]: the “% inh.” value worked out at 98%. As to `O=C(Nc1ccc(Oc2ccc(NC(=O)c3cc(Cl)ccc3F)c(C(=O)O)c2)cc1C(=O)O)c1cccc(Cl)c1` [2:2, 5-[3-carboxy-4-(3-chloro-6-fluorobenz-amido)phenyloxy]-2-(3-chlorobenz-amido)benzoic acid], the “% inh.” value is reported as 100%. In the case of `O=C(O)c1cc(Oc2ccc(Nc3ccc(C(=O)C4CC4)cc3)c(C(=O)O)c2)ccc1Nc1ccc(F)cc1` [1:7, 5-[3-carboxy-4-(4-cyclopropane-carbonylphenylamino)phenyloxy]-2-(4-fluorophenylamino)benzene-carboxylic acid], the inhibition at 3 µM was 97%.

As for `O=C(Nc1ccc([S+]([O-])c2ccc(NC(=O)c3ccc(C(F)(F)F)cc3)c(C(=O)O)c2)cc1C(=O)O)c1ccc(C(F)(F)F)cc1` [15:3, 2-(4-(trifluoromethyl)benz-amido)-5-((4-(4-(trifluoromethyl)benzamido)-3-carboxy-phenyl)sulfinyl)benzoic acid], the “% inh.” value is on record as 99%. Consider `O=C(Nc1ccc(S(=O)(=O)c2ccc(NC(=O)c3ccc(C(F)(F)F)cc3)c(C(=O)O)c2)cc1C(=O)O)c1ccc(C(F)(F)F)cc1` [16:2, 2-(4-(trifluoromethyl)benz-amido)-5-((4-(4-(trifluoro-methyl)benzamido)-3-carboxyphenyl)sulfonyl)-benzoic acid], for which the “% inh.” value was 97%. As for `CCOc1ccc(C(=O)Nc2ccc(Oc3ccc(NC(=O)c4ccccc4)cc3)cc2C(=O)O)cc1` [8:11, 5-(4-benzoylaminophenoxy)-2-(4-ethoxybenzoylamino)-benzoic acid], the inhibition at 3 µM came to 70%.

Take `CCCCc1ccc(C(=O)Nc2ccc(Oc3ccc(NC(=O)c4ccccc4)c(C(=O)O)c3)cc2)cc1` [8:12, 2-benzoylamino-5-[4-(4-butyl-benzoylamino)phenoxy]-benzoic acid]: the inhibition at 10 µM is 99%.

`O=C(Nc1ccc(Oc2ccc(NC(=O)c3cccc(Cl)c3)c(C(=O)O)c2)cc1C(=O)O)c1ccccc1` [5:3, 5-[3-carboxy-4-(3-chlorobenzamido)-phenyloxy]-2-benzamidobenzoic acid]: the inhibition at 10 µM turned out to be 100%. With `CCCCc1ccc(C(=O)Nc2ccc(Oc3ccc(NC(=O)c4ccc(Cl)cc4Cl)c(C(=O)O)c3)cc2C(=O)O)cc1` [2:5, 5-[3-carboxy-4-(4-chloro-6-chloro-benzamido)-phenyloxy]-2-(4-butylbenz-amido)benzoic acid], the “% inh.” value is given as 100%.
